{"source": "patent US12245623B2", "about": "“Olive oil enriched with oleanolic acid, process for its preparation and use thereof” (CONSEJO SUPERIOR DE INVESTIGACIONES CIENTÍFICAS (CSIC), priority 2018, dated 2025)", "key": {"[1]": {"assay": "Fasting plasma OA levels in the PREDIABOLE Study (GC-MS)", "assay_type": "in vivo, human", "conditions": "both study groups", "text": "At baseline and every six months afterwards, fasting blood samples were taken and analyzed for the serum glucose, insulin and HbA1c levels, as well as the lipid profile (triglycerides, total cholesterol, HDL-c and LDL-c). At each annual visit since the recruitment, participants were submitted to an OGTT. All these analytical determinations were made in the Laboratory of Analysis and Clinical Biochemistry of the ‘Virgen del Rocio’ University Hospital of Seville. In addition, aliquots of all the blood samples were sent to Instituto de la Grasa-CSIC to determine the plasma OA content. Laboratory technicians of both institutions were also blinded to the intervention groups.\nAdherence to the dietary intervention has been assessed through two indirect methods: the self-reported compliance Haynes-Sackett (Rodriguez-Chamorro M A et al. Review of therapeutic compliance measurement tests used in clinical practice. Atencion Primaria 2008, 40, 413-417) test and the delivering of the empty bottles presumably consumed. In addition, the OA plasma levels have been measured, as objective biomarker of compliance, in a random sample of the PREDIABOLE biobank (25 aliquots per study group, corresponding to 0, 12, 18 and 30 months of follow-up). […]"}, "[2]": {"assay": "Adverse effects in the PREDIABOLE Study (quarterly questioning and retrospective review of electronic medical records)", "assay_type": "in vivo, human", "conditions": "indicated daily dose (55 mL oil, 36 mg OA/day), up to 30 months, humans", "text": "In each quarterly visit during the development of the trial, participants were questioned about the appearance of gastrointestinal disarrays or other kind of discomfort. On the other hand, a family physician not belonging to the study staff, and therefore being unaware of the allocation of the participants to the study groups, carried out a retrospective study using the electronic medical records.\nThey explored for each participant the period comprised between the inclusion in the trial up to two years after its completion, and focused on analytical values of serum creatinine levels (marker of renal function) and alanine and aspartate aminotransferase enzymes (as markers of hepatic alteration). Normal creatinine levels are established in 61.9 to 114.9 μM for men and 53 to 97.2 μM for women. A serum creatinine level 1.5-folds higher than the normal value (≈150 μM) was adopted as criteria of kidney function alteration.\nSince micro and macrovascular disorders are frequently associated to pathological complications of insulin resistance and diabetes, the electronic medical records were also explored for cerebral (transient ischemic stroke and ictus), cardiac (ischemic heart disease, chronic ischemia and effort angina) and peripheral (peripheral arterial disease) vascular diseases. In addition, any other significant adverse event suffered by participants were also took in consideration. […]"}, "[3]": {"conditions": "previous study, Rada et al. 2015; cited from earlier work"}, "[4]": {"conditions": "cited from earlier work"}}, "data": [{"smiles": "CC1(C)CC[C@]2(C(=O)O)CC[C@]3(C)C(=CC[C@@H]4[C@@]5(C)CC[C@H](O)C(C)(C)[C@@H]5CC[C@]43C)[C@@H]2C1", "note": "[OA, 3b-hydroxy-olean-12-en-28-oic acid]", "values": [{"measurement": "fasting OA plasma concentration, average value", "setting": "[1]; at the onset of the study", "value": "ca. 160 ng/mL"}, {"measurement": "concentration at 30 months", "setting": "[1]; human, in vivo, after 30 months of follow-up", "value": "~300", "unit": "ng/mL"}, {"measurement": "safety of long-term administration", "setting": "[2]", "value": "safe for humans"}, {"measurement": "mean residence time of OA in human blood after its ingestion", "setting": "[3]", "value": 8.9, "unit": "h"}, {"measurement": "solubility in aqueous media", "setting": "[4]", "value": "practically insoluble"}, {"measurement": "solubility in lipophilic matrices", "setting": "[4]", "value": "partially soluble"}]}]}
